This note sets out measurements from patent US8946437B2, “4-(methylaminophenoxy)pyrdin-3-yl-benzamide derivatives for treating cancer” (Otsuka Pharmaceutical Co., Ltd., priority 2010, dated 2015).

For data set [1], the system named is human hepatic cancer cells (HuH-7). The experiment in a line: Antiproliferative effect on cancer cells (in vitro), sulforhodamine B method. The data set is classed as cell-based. To be noted: 120 h, HuH-7 cells, 5 days incubation with test compound, SRB staining, read-out: IC50 (50% inhibitory concentration), growth inhibition of HuH-7 cells. As for the experimental part:
Antiproliferative Effect on Cancer Cells (In Vitro)
Growth inhibition of human hepatic cancer cells (HuH-7) was determined by the sulforhodamine B method based on the method of Skehan P. et al. (J Natl Cancer Inst. 1990 Jul. 4; 82(13): 1107-12). In the study, HuH-7 cells were seeded on DMEM medium containing 10% fetal bovine serum in a 96-well microplate. After 24-hour incubation at 37° C. in the presence of 5% carbon dioxide, the test compound was added and the cells were incubated for another 5 days. After incubation, a trichloroacetic acid solution was added to yield the final concentration of 10% and the cells were left to stand at 4° C. for 1 hour to fix. Then, the cells were washed with water to remove the medium and trichloroacetic acid and dried in the air. The dried cells were stored at 4° C. until they were stained with sulforhodamine B. To each well, 1% acetic acid solution containing 0.4% sulforhodamine B was added and left to stand for 20 to 30 minutes at room temperature. After discarding the supernatant, each well was washed with 1% acetic acid solution, and 10 mM Tris(tris-(hydroxymethyl)aminomethane) solution was added while stirring to elute the dye taken into the cells. Then, the optical density was determined at the measurement wavelength of 492 nm and the reference wavelength of 690 nm, and the difference was calculated. The cell growth activity in each well was defined as the value determined by subtracting the OD in the control well not containing cells (the difference in absorbance between 492 nm and 690 nm) from that in the test well.
The 50% inhibitory concentration (IC50 (nM)) of the test compound was determined by comparing the cell growth activity in the well containing the test compound with that of the control not containing the test compound.
For orientation: The SRB assay estimates cell density from bound dye.

Data set [2] in a line: Metabolic stability test in hepatic microsome. The data set is classed as in vitro ADME. To be noted: liver microsomes, NADH/NADPH, 37° C., 0, 10 and 20 min, read-out: CLint (intrinsic clearance). The procedure:
Metabolic Stability Test in Hepatic Microsome
In this study, 222.5 μL of 0.22 mg/mL liver microsome was distributed to each tube, and 2.5 μL of 100 μM test compound was added thereto. Then, 22.5 μL of this mixture was divided to 500 μL of acetonitrile spiked IS as 0 min sample, and the residue was pre-incubated at 37° C. for 5 min. Reaction was started by the addition of 22.5 μL of 10 mM NADH/NADPH, and after 10 and 20 min, 25 μL of the reaction mixture was divided to 500 μL of acetonitrile spiked IS. The samples were centrifuged (5700 rpm, 4° C., 10 min), and the supernatants were analyzed by LC/MS/MS. The slope of the linear regression from log percentage remaining versus incubation time relationships (−ke) was calculated, and the intrinsic clearance (CLint) was calculated using the following equation.
On the technique in general: Microsomes from liver hold many membrane-bound enzymes, among them those of drug oxidation.

Data set [3] in a line: Stability test of dissolved compounds under heat- and acid-stress condition. The data set is classed as physicochemical. To be noted: dissolved in water/acetonitrile/trifluoroacetic acid (500:500:1), stored at 70° C., Day 0, Day 1 and Day 3. As for the experimental part: In order to estimate the stability of compounds without conducting a long-term stability test, the stability of the dissolved compounds was evaluated under a heat- and acid-stress condition.
About 0.005 g of test compound was dissolved in 50 mL of a mobile phase, and this solution was used as the sample solution. The solutions were put into a brown glass vial and stored at 70° C. during the test period. The test with 20 μL of each of the sample solution was conducted at the following sampling points as directed under the Liquid Chromatography according to the following conditions. The residual ratio of the test compound's peak area (%) in the total peak area detected in the solution was determined by the automatic integration method. Operating conditions were as follows. […] The residual ratio of the test compound's peak area (%) is calculated as follows. The peak area of the test compound/The total peak area detected in the solution×100.

Molecules are shown by their SMILES. Structures can show the parent of a compound that is named as a salt.

As to `CNc1ccc(Oc2ccc(NC(=O)c3ccc(C(F)(F)F)cc3F)cn2)cc1` [Example 31, 2-Fluoro-N-{6-[4-(methylamino)phenoxy]pyridin-3-yl}-4-(trifluoromethyl)benzamide hydrochloride], the IC50 in data set [1] was 327 nM. Moreover, the microsomal CLint at 1 µM in data set [2] is under 200 µL/min/mg.

On to `CNc1ccc(Oc2ccc(NC(=O)c3ccc(Oc4ccccc4)cc3)cn2)c(C)c1` [Example 6, N-{6-[2-Methyl-4-(methylamino)phenoxy]pyridin-3-yl}-4-phenoxybenzamide], for which the IC50 in data set [1] amounted to 78.5 nM. Also, the microsomal CLint at 1 µM in data set [2] was under 200 µL/min/mg.

For the molecule `CNc1ccc(Oc2ccc(NC(=O)c3ccc(-c4ccccc4)cc3)cn2)c(C)c1` [Example 7, N-{6-[2-Methyl-4-(methylamino)phenoxy]pyridin-3-yl}biphenyl-4-carboxamide], the IC50 in data set [1] was determined as 77.6 nM. The microsomal CLint at 1 µM in data set [2] was under 200 µL/min/mg.

Consider `CNc1ccc(Oc2ccc(NC(=O)c3ccc(C(F)(F)F)cc3F)cn2)c(C)c1` [Example 9, 2-Fluoro-N-{6-[2-methyl-4-(methylamino)phenoxy]pyridin-3-yl}-4-(trifluoromethyl)benzamide], for which the IC50 in data set [1] was found to be 70.4 nM. Also, the microsomal CLint at 1 µM in data set [2] is under 200 µL/min/mg.

As for `CNc1ccc(Oc2ccc(NC(=O)c3ccc(Oc4ccccc4)cc3)cn2)cc1` [Example 10, N-{6-[4-(Methylamino)phenoxy]pyridin-3-yl}-4-phenoxybenzamide], the IC50 in data set [1] worked out at 320 nM.

One may read the melting point as the temperature of the solid-liquid transition. Consider `CNc1ccc(Oc2ccc(NC(=O)c3ccc(Oc4ccccc4)cc3)cn2)c(OC)c1.Cl` [Example 26, N-{6-[2-Methoxy-4-(methylamino)phenoxy]pyridin-3-yl}-4-phenoxybenzamide hydrochloride], for which the melting point was 202.2 to 202.3 °C. In addition, in data set [1], the IC50 stood at 275 nM. For the same molecule, the microsomal CLint at 1 µM in data set [2] is under 200 µL/min/mg.

In the case of `CNc1ccc(Oc2ccc(NC(=O)c3ccc(C(F)(F)F)cc3F)cn2)c(F)c1` [Example 22, 2-Fluoro-N-{6-[2-fluoro-4-(methylamino)phenoxy]pyridin-3-yl}-4-(trifluoromethyl)benzamide hydrochloride], the IC50 in data set [1] came to 163 nM. In addition, the microsomal CLint at 1 µM in data set [2] is under 200 µL/min/mg.

With `CNc1ccc(Oc2ccc(NC(=O)c3ccc(Oc4ccccc4)cc3)cn2)c(F)c1` [Example 21, N-{6-[2-fluoro-4-(methylamino)phenoxy]pyridin-3-yl}-4-phenoxybenzamide hydrochloride], in data set [1], the IC50 is 136 nM.

Consider `CNc1ccc(Oc2ccc(NC(=O)c3ccc(-c4ccccc4)cc3)cn2)c(OC)c1` [Example 14, N-{6-[2-Methoxy-4-(methylamino)phenoxy]pyridin-3-yl}biphenyl-4-carboxamide], for which the melting point fell in the range of 161.4 to 161.8 °C. In data set [1], the IC50 came out at 248 nM. Besides, the microsomal CLint at 1 µM in data set [2] was under 200 µL/min/mg.

`CNc1ccc(Oc2ccc(NC(=O)c3ccc(F)c(F)c3F)cn2)c(C)c1.Cl` [Example 25, 2,3,4-Trifluoro-N-{6-[2-methyl-4-(methylamino)phenoxy]pyridin-3-yl}benzamide hydrochloride]: the melting point is 222.9 to 225.4 °C (dec.). In data set [1], the IC50 was 485 nM. Also, the microsomal CLint at 1 µM in data set [2] is under 200 µL/min/mg.

`CNc1ccc(Oc2ccc(NC(=O)c3ccc(F)c(F)c3F)cn2)c(OC)c1.Cl` came in with a melting point of 207.1 to 209.8 °C.

As to `CNc1ccc(Oc2ccc(NC(=O)c3ccc(C(F)(F)F)cc3)cn2)cc1.Cl` [Example 30, N-{6-[4-(Methylamino)phenoxy]pyridin-3-yl}-4-(trifluoromethyl)benzamide hydrochloride], in data set [1], the IC50 amounted to 275 nM. Besides, in data set [2], the microsomal CLint at 1 µM is under 200 µL/min/mg. Moreover, the “storage stability (residual ratio of the test compound's peak area)” value in data set [3] is listed as “superior storage stability”.

Turning to `CNc1ccc(Oc2ccc(NC(=O)c3ccc(C(F)(F)F)cc3)cn2)c(F)c1` [Example 3, N-{6-[2-Fluoro-4-(methylamino)phenoxy]pyridin-3-yl}-4-(trifluoromethyl)benzamide], the IC50 in data set [1] was determined as 155 nM. Further, the microsomal CLint at 1 µM in data set [2] is under 200 µL/min/mg.

`CNc1ccc(Oc2ccc(NC(=O)c3ccc(C(F)(F)F)cc3)cn2)c(C)c1` [Example 24, N-{6-[2-methyl-4-(methylamino)phenoxy]pyridin-3-yl}-4-(trifluoromethyl)benzamide hydrochloride]: the IC50 in data set [1] stood at 72.3 nM. In data set [2], the microsomal CLint at 1 µM was under 200 µL/min/mg.

For `CNc1ccc(Oc2ccc(NC(=O)c3ccc(-c4ccccc4)cc3)cn2)cc1` [Example 11, N-{6-[4-(Methylamino)phenoxy]pyridin-3-yl}biphenyl-4-carboxamide], the IC50 in data set [1] turned out to be 311 nM.

`CNc1ccc(Oc2ccc(NC(=O)c3ccc(F)c(F)c3F)cn2)c(F)c1` [Example 23, 2,3,4-Trifluoro-N-{6-[2-fluoro-4-(methylamino)phenoxy]pyridin-3-yl}benzamide hydrochloride]: the IC50 in data set [1] stood at 753 nM.

Regarding `CNc1ccc(Oc2ccc(NC(=O)c3ccc(C(F)(F)F)cc3)cn2)c(OC)c1.Cl` [Example 27, N-{6-[2-Methoxy-4-(methylamino)phenoxy]pyridin-3-yl}-4-(trifluoromethyl)benzamide hydrochloride], the melting point lay within 217.6 to 218.2 °C. Besides, the IC50 in data set [1] turned out to be 304 nM. For the same molecule, the microsomal CLint at 1 µM in data set [2] was under 200 µL/min/mg.

For the molecule `CNc1ccc(Oc2ccc(NC(=O)c3ccc(C(F)(F)F)cc3F)cn2)c(OC)c1.Cl` [Example 28, 2-Fluoro-N-{6-[2-methoxy-4-(methylamino)phenoxy]pyridin-3-yl}-4-(trifluoromethyl)benzamide hydrochloride], the melting point is 197 to 198.1 °C. The IC50 in data set [1] turned out to be 293 nM. For the same molecule, in data set [2], the microsomal CLint at 1 µM was under 200 µL/min/mg.

Take `CNc1ccc(Oc2ccc(NC(=O)c3ccc(-c4ccccc4)cc3)cn2)c(F)c1` [Example 2, N-{6-[2-Fluoro-4-(methylamino)phenoxy]pyridin-3-yl}biphenyl-4-carboxamide]: the melting point was 190 to 190.5 °C (dec.). The IC50 in data set [1] came out at 108 nM. The microsomal CLint at 1 µM in data set [2] was under 200 µL/min/mg.
